Laboratory results reported in ChEMBL document CHEMBL5321270, “Discovery of Pyrazolone Carbothioamide Derivatives as Inhibitors of the Pdr1-KIX Interaction for Combinational Treatment of Azole-Resistant Candidiasis” (J Med Chem, 2023).
In brackets after ≈: the same amount, converted by molar mass. Activity calls are given as the source filed them. No cut-off for these calls is given here.

Legend:
Nakaseomyces glabratus [1] = assay: Synergistic antifungal activity against fluconazole-resistant Candida glabrata 0161 assessed as inhibition of fungal biofilm formation at 32 ug/ml incubated for 24 hrs in presence of fluconazole by XXT reduction menadione assay; type: functional
Nakaseomyces glabratus [2] = assay: Antifungal activity against fluconazole-resistant Candida glabrata 0161 assessed as fluconazole fractional inhibitory concentration incubated for 48 hrs in presence of fluconazole by microplate reader assay; type: functional
Nakaseomyces glabratus [3] = assay: Antifungal activity against fluconazole-resistant Candida glabrata 0161 assessed as fungal growth inhibition incubated for 48 hrs by microplate reader assay; type: functional
Nakaseomyces glabratus [4] = assay: Synergistic antifungal activity against fluconazole-resistant Candida glabrata 0161 assessed as inhibition of Rhodamine 6G efflux at 1 to 8 ug/ml incubated for 25 hrs in presence of fluconazole by Rhodamine 6G staining based fluorescence assay; type: functional, organism-based; conditions: dose 1-8 µg/ml
Nakaseomyces glabratus [5] = assay: Synergistic antifungal activity against fluconazole-resistant Candida glabrata 0161 assessed as inhibition of fungal biofilm formation at 1 ug/ml incubated for 24 hrs in presence of fluconazole by XXT reduction menadione assay; type: functional
Nakaseomyces glabratus [6] = assay: Synergistic antifungal activity against fluconazole-resistant Candida glabrata 0161 assessed as fractional inhibitory concentration index incubated for 48 hrs in presence of fluconazole by checkerboard microdilution method; type: functional
Cryptococcus neoformans = assay: Antifungal activity against Cryptococcus neoformans H99 assessed as fungal growth inhibition incubated for 48 hrs by microplate reader assay; type: functional
[Candida] auris = Antifungal activity against Candida auris 0030 assessed as fungal growth inhibition incubated for 48 hrs by microplate reader assay; type: functional; conditions: Candidozyma auris
Nakaseomyces glabratus [7] = assay: Antifungal activity against fluconazole-resistant Candida glabrata 0161 assessed as inhibition of fungal biofilm formation at 32 ug/ml incubated for 24 hrs by XXT reduction menadione assay; type: functional
Nakaseomyces glabratus [8] = assay: Antifungal activity against FLC-resistant Candida glabrata 0161 infected in cyclophosphamide immunosuppressed ICR mouse model assessed as inhibition of fungal growth in kidney at 5 mg/kg,ip administrated for 5 days; type: functional, organism-based; conditions: time 5.0 day

Nc1cc(=O)n(C(=S)Nc2ccc3c(c2)CCC3)[nH]1
inhibition at 32 µg/mL (Nakaseomyces glabratus [1]): 73% | fluconazole MIC in combination (Nakaseomyces glabratus [2]): 1 µg/mL | MIC (Nakaseomyces glabratus [3]): 0.25 µg/mL (≈ 0.911 µM) | Activity (Nakaseomyces glabratus [4]): Active | inhibition at 1 µg/mL (Nakaseomyces glabratus [5]): 33% | fractional inhibitory concentration index (FICI) (Nakaseomyces glabratus [6]): 0.28 | MIC (Cryptococcus neoformans): 0.063 µg/mL (≈ 0.23 µM) | MIC ([Candida] auris): 2 µg/mL (≈ 7.29 µM) | inhibition at 32 µg/mL (Nakaseomyces glabratus [7]): 40% | Activity (Nakaseomyces glabratus [8]): Active
